Measured values published in patent US20100222396A1 (Novartis AG, priority 2009, published 2010).

Legend:
[1] = target: T1, human orexin 1 receptor (hOx1R) (Homo sapiens, UniProt O43613); experiment: Calcium accumulation in cells (FLIPR), antagonism of orexin A, hOx1R; format: cell-based; details: for inhibition at 10 µM: measured at a concentration of 10 μM of compound (cells marked ^a); for Kd: cells expressing human orexin 1 receptor, IC50 vs orexin A converted by Cheng and Prusoff correction
T1 construct: expressed in transfected cells
T1 sequence (O43613 1-425): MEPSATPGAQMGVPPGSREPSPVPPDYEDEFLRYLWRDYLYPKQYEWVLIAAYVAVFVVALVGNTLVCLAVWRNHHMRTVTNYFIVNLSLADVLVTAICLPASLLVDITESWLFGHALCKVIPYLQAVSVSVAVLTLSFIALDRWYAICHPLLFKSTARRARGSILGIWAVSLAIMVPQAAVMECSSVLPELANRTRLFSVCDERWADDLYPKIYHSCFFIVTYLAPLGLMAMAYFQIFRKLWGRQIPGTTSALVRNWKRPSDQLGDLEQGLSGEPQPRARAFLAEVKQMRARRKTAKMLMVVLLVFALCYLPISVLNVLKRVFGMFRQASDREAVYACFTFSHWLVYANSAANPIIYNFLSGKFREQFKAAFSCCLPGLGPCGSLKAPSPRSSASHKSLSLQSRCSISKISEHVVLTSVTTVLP
Method in brief: (§1)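 Serum-starved receptor-expressing cells were loaded with Fluo-4-AM (2 μM) plus probenecid (0.1 mM) in HEPES buffer, pH 7.4, with 1% BSA, and Ca2+ fluorescence was read on FLIPR. Compounds (10^−9–10^−5 M) were added first, and orexin A was added one hour later to measure antagonism.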

[2] = target: T2, human orexin 2 receptor (hOx2R) (Homo sapiens, UniProt O43614); experiment: Calcium accumulation in cells (FLIPR), antagonism of orexin A, hOx2R; format: cell-based; details: for Kd: cells expressing human orexin 2 receptor, IC50 vs orexin A converted by Cheng and Prusoff correction; for inhibition at 10 µM: measured at a concentration of 10 μM of compound (cells marked ^a)
T2 construct: expressed in transfected cells
T2 sequence (O43614 1-444): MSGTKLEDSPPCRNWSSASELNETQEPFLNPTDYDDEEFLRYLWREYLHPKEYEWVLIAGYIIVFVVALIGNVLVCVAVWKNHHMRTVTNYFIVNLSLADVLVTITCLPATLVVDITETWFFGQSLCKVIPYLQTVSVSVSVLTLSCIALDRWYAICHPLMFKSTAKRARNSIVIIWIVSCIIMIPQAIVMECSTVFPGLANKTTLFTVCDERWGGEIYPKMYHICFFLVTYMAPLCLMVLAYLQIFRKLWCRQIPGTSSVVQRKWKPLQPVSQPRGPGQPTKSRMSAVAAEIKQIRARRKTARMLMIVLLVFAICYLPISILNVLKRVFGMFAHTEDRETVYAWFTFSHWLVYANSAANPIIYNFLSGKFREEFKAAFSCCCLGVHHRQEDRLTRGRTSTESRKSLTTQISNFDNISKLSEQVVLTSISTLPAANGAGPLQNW
Method in brief: as §1

[3] = target: T1, human orexin 1 receptor (hOx1R); experiment: Radioligand binding assay ([125I]orexin A competition), hOx1R; details: CHO or HEK cell membranes, 1 h room temperature
Protocol: (§2) For crude cell membrane preparations, cells (CHO, Chinese hamster ovary or HEK, human embryonic kidney) expressing human orexin 1 or human orexin 2 receptors, were washed with HEPES (10 mM, pH 7.5), scraped off the culture plates with the same buffer, and centrifuged at 4° C. for 5 min at 2500×g. The cell pellet was either stored at −80° C. or used directly. Before the experiments, cell membranes were re-suspended in binding assay buffer (10 mM HEPES, 0.5% (w/v) bovine serum albumin, pH 7.5) by homogenisation with a Polytron homogeniser at 50 Hz for 20 s. Cell membranes were also used as made available by commercial providers.
(§3) In initial saturation experiments (to calculate Bmax), cell homogenates (150 μl) were incubated with 25-300 pM of the radioligand ([^125I]orexin A, 50 μl), 8 concentrations in triplicates in the presence or absence Orexin A (1 μM, 50 μl) to define non specific binding. Bound radioactivity was measured, and data were analysed with the program XLFIT or Graphpad Prism. Protein concentration was determined according to the Bradford/BioRad Protein Assay Kit.
(§4) In competition experiments, cell homogenates (150 μl) were incubated in assay buffer (10 mM HEPES, pH 7.5, 0.5% (w/v) bovine serum albumin, 5 mM MgCl2, […], and tween 0.05%) for 1 h at room temperature with about […] of the radioligand ([^125I]orexin A, 2100 Ci/mmole, 50 μl), and with various concentrations of compounds of the invention (50 μl) in triplicates; non-specific binding was determined in the presence of Orexin A (1 μM). Reactions were terminated by vacuum filtration, 3 washes of ice cold wash buffer (Tris-HCl pH 7.4/10 mM, with NaCl 154 mM). Competition data is expressed in Table 1 as Kd [μM].

[4] = target: T2, human orexin 2 receptor (hOx2R); experiment: Radioligand binding assay ([125I]orexin A competition), hOx2R; details: CHO or HEK cell membranes, 1 h room temperature
Protocol: as §2, §3, §4

SMILES | inhibition at 10 µM [1] [%] | Kd [2] [nM] | Kd [3] [nM] | Kd [4] [nM] | inhibition at 10 µM [2] [%] | Kd [1] [nM]
CN(C(=O)c1cccc2c1OCCO2)[C@H](CCNC(=O)c1ccccn1)Cc1ccccc1 [Example 54, Pyridine-2-carboxylic acid {(S)-3-[(2,3-dihydro-benzo[1,4]dioxine-5-carbonyl)-methyl-amino]-4-phenyl-butyl}-amide] | 9 | 958 | > 10000 | 1730 | – | –
CN(C(=O)c1ccccc1)[C@H](CCNC(=O)c1ccnc2ccccc12)Cc1ccccc1 [Example 2, Quinoline-4-carboxylic acid [(S)-3-(benzoyl-methyl-amino)-4-phenyl-butyl]-amide] | 4 | – | > 10000 | 4970 | 19 | –
CN(C(=O)c1cc(C(F)(F)F)cc(C(F)(F)F)c1)[C@H](CCNC(=O)c1nc2ccccc2n1C)Cc1ccccc1 [Example 12, 1-Methyl-1H-benzoimidazole-2-carboxylic acid {(S)-3-[(3,5-bis-trifluoromethyl-benzoyl)-methyl-amino]-4-phenyl-butyl}-amide] | – | 40 | 1070 | 98 | – | 437
CN(C(=O)c1cccc2c1OCO2)[C@H](CCNC(=O)c1nc2ccccc2n1C)Cc1ccc(F)cc1 [Example 56, 1-Methyl-1H-benzoimidazole-2-carboxylic acid [(S)-3-[(benzo[1,3]dioxole-4-carbonyl)-methyl-amino]-4-(4-fluoro-phenyl)-butyl]-amide] | 1 | – | > 10000 | 2720 | 35 | –
CN(C(=O)c1ccccc1)[C@H](CCNC(=O)c1ccccn1)Cc1ccc(F)cc1 [Example 66, Pyridine-2-carboxylic acid [(S)-3-(benzoyl-methyl-amino)-4-(4-fluoro-phenyl)-butyl]-amide] | 0 | – | > 10000 | 7120 | 33 | –
CN(C(=O)c1cccc(C(F)(F)F)c1)[C@H](CCNC(=O)c1ccccn1)Cc1ccccc1 [Example 4, Pyridine-2-carboxylic acid {(S)-3-[methyl-(3-trifluoromethyl-benzoyl)-amino]-4-phenyl-butyl}-amide] | – | 44 | 112 | 14 | – | 173
CN(C(=O)c1ccccc1)[C@H](CCNC(=O)c1ccccn1)Cc1ccccc1 [Example 37, Pyridine-2-carboxylic acid [(S)-3-(benzoyl-methyl-amino)-4-phenyl-butyl]-amide] | – | 440 | 358 | 479 | – | 836
CN(C(=O)c1ccc2c(c1)OCCO2)[C@H](CCNC(=O)c1ccccn1)Cc1ccccc1 [Example 71, Pyridine-2-carboxylic acid {(S)-3-[(2,3-dihydro-benzo[1,4]dioxine-6-carbonyl)-methyl-amino]-4-phenyl-butyl}-amide] | – | – | 1610 | 9520 | 28 | 1940
CN(C(=O)c1cccc2[nH]ccc12)[C@H](CCNC(=O)c1ccccn1)Cc1ccccc1 [Example 11, 1H-Indole-4-carboxylic acid {(S)-1-benzyl-3-[(pyridine-2-carbonyl)-amino]-propyl}-methyl-amide] | – | 16 | 21 | 52 | – | 22
CN(C(=O)c1ccc2c(c1)CCN2)[C@H](CCNC(=O)c1ccccn1)Cc1ccccc1 [Example 23, 2,3-Dihydro-1H-indole-5-carboxylic acid {(S)-1-benzyl-3-[(pyridine-2-carbonyl)-amino]-propyl}-methyl-amide] | – | 419 | 52 | 265 | – | 152
CN(C(=O)c1ccc2c(c1)OCC2)[C@H](CCNC(=O)c1cccn1C)Cc1ccccc1 [Example 117, 1-Methyl-1H-pyrrole-2-carboxylic acid {(S)-3-[(2,3-dihydro-benzofuran-6-carbonyl)-methyl-amino]-4-phenyl-butyl}-amide] | – | 65 | 444 | 81 | – | 987
CN(C(=O)c1ccc2c(c1)OCO2)[C@H](CCNC(=O)c1ccccn1)Cc1ccc(F)cc1 [Example 51, Pyridine-2-carboxylic acid [(S)-3-[(benzo[1,3]dioxole-5-carbonyl)-methyl-amino]-4-(4-fluoro-phenyl)-butyl]-amide] | 16 | 794 | 3540 | 1150 | – | –
COc1cc(OC)cc(C(=O)N(C)[C@H](CCNC(=O)c2cccn2C)Cc2ccccc2)c1 [Example 104, 1-Methyl-1H-pyrrole-2-carboxylic acid {(S)-3-[(3,5-dimethoxy-benzoyl)-methyl-amino]-4-phenyl-butyl}-amide] | – | 4 | 123 | 6 | – | 609
CN(C(=O)c1ccc2ccccc2c1)[C@H](CCNC(=O)c1ccccn1)Cc1ccc(F)cc1 [Example 58, Pyridine-2-carboxylic acid {(S)-4-(4-fluoro-phenyl)-3-[methyl-(naphthalene-2-carbonyl)-amino]-butyl}-amide] | 1 | 1060 | 2300 | 3430 | – | –
CN(C(=O)c1ccc2ccccc2c1)[C@H](CCNC(=O)c1ccccn1)Cc1ccc(Cl)cc1 [Example 53, Pyridine-2-carboxylic acid {(S)-4-(4-chloro-phenyl)-3-[methyl-(naphthalene-2-carbonyl)-amino]-butyl}-amide] | 13 | 748 | 3410 | 1460 | – | –
CN(C(=O)c1ccccc1)[C@@H](CCNC(=O)c1ccccn1)Cc1ccccc1 [Example 68, Pyridine-2-carboxylic acid [(R)-3-(benzoyl-methyl-amino)-4-phenyl-butyl]-amide] | – | 2370 | > 10000 | 7530 | – | 3580
CN(C(=O)c1ccccc1)[C@H](CCNC(=O)c1cccc2c1OCC2)Cc1ccccc1 [Example 67, 2,3-Dihydro-benzofuran-7-carboxylic acid [(S)-3-(benzoyl-methyl-amino)-4-phenyl-butyl]-amide] | 33 | 180 | 1080 | 114 | – | –
CCN(C(=O)c1cccc2c1OCO2)[C@H](CCNC(=O)c1ccccn1)Cc1ccccc1 [Example 45, Pyridine-2-carboxylic acid {(S)-3-[(benzo[1,3]dioxole-4-carbonyl)-ethyl-amino]-4-phenyl-butyl}-amide] | – | 424 | 5330 | 748 | – | 2710
CN(C(=O)c1cccc(OC(F)(F)F)c1)[C@H](CCNC(=O)c1cccn1C)Cc1ccccc1 [Example 123, 1-Methyl-1H-pyrrole-2-carboxylic acid {(S)-3-[methyl-(3-trifluoromethoxy-benzoyl)-amino]-4-phenyl-butyl}-amide] | – | 7 | 1580 | 30 | – | 865
